Data reported in US11040981B2, “Pyrrolotriazine compounds and methods of inhibiting TAM kinases” (Syros Pharmaceuticals, Inc., priority 2017, dated 2021).
pIC50: −log10 of the molar value.

Experiments:
[1] = target: T1, MERTK (Homo sapiens, UniProt Q12866); experiment: TR-FRET kinase activity assay, MERTK; format: biochemical; conditions: for pIC50: TR-FRET activity assay, ATP at Km, 60 minutes, read-out: Mer IC50; for FLT3/Mer ratio (FLT3 IC50/Mer IC50): ratio calculated as FLT3 IC50/Mer IC50
T1 sequence (Q12866 21-999): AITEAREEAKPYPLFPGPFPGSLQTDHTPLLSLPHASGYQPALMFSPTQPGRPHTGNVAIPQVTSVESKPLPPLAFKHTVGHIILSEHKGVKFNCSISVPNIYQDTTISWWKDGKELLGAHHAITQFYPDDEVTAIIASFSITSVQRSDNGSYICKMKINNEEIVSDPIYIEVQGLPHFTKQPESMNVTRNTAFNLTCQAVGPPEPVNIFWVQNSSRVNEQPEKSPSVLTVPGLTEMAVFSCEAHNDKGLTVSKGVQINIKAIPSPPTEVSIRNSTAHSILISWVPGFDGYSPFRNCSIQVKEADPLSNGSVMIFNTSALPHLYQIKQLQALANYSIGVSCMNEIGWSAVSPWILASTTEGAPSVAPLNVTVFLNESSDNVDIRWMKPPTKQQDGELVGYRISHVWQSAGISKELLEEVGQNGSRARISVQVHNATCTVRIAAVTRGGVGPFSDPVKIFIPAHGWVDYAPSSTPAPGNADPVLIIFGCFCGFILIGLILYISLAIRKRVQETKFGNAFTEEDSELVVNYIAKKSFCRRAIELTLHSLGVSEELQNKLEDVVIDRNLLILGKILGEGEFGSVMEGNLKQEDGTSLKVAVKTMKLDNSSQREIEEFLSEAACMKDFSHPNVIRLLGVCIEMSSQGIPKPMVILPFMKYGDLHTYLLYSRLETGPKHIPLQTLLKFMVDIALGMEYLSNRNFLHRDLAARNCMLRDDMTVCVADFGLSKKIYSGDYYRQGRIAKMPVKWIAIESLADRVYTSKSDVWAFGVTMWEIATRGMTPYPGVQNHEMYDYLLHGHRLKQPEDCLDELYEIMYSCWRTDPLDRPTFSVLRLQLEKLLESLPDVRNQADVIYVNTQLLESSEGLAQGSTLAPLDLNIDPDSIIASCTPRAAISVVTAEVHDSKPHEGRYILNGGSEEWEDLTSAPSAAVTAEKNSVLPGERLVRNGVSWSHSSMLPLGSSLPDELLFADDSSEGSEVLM
Summary of the method: (§1)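 Enzyme + labelled peptide + cpd premixed; ATP at per-enzyme Km starts rxn. 60 min RT, HEPES pH 7.5/MgCl2/EGTA/Brij 35/DTT buffer. Stop 12.5 mM EDTA, Eu phospho-Ab 30 min dark, TR-FRET read → IC50.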

[2] = target: T2, TYRO3 (Homo sapiens, UniProt Q06418); experiment: TR-FRET kinase activity assay, TYRO3; format: biochemical; conditions: ATP at Km, 60 minutes
T2 sequence (Q06418 41-890): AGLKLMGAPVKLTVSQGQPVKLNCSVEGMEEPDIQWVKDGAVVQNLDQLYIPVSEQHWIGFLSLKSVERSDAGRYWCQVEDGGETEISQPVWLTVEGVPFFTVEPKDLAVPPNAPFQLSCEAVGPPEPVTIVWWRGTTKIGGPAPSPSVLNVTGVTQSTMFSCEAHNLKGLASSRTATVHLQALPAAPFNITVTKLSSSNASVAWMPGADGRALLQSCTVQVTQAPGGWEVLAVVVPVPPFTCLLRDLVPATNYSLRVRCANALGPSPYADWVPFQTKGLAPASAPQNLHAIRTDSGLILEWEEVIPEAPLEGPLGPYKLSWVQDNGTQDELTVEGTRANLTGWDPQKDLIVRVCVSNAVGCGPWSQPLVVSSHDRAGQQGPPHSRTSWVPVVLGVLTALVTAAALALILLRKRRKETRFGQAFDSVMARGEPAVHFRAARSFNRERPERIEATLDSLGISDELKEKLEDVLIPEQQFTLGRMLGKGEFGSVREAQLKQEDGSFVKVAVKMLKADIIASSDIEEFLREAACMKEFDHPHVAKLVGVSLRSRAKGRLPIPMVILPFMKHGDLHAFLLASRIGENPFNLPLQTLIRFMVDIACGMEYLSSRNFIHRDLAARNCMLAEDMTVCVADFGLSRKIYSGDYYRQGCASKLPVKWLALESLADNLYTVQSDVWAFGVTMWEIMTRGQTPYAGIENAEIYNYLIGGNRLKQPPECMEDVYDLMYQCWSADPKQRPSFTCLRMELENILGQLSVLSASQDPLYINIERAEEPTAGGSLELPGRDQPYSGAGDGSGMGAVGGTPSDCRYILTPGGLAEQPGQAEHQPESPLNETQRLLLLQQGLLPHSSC
Summary of the method: as §1

| Structure (SMILES) | pIC50 [1] | FLT3/Mer ratio (FLT3 IC50/Mer IC50) [1] | pIC50 [2] |
| --- | --- | --- | --- |
| COC[C@H](C)Nc1ncc2c(-c3cccc(N4C[C@H]5COC[C@H]5C4)c3)cc([C@H]3CC[C@H](O)CC3)n2n1 [Compound 464] | ≥ 7.00 | +++ (“+++” represents a ratio of >100) | ≥ 7.00 |
| COC[C@H](C)Nc1ncc2c(C3=C[C@@H]4CC[C@H](C3)N4C)cc([C@H]3CC[C@H](O)CC3)n2n1 [Compound 465] | ≥ 7.00 | +++ (“+++” represents a ratio of >100) | ≥ 7.00 |
| COC[C@H](C)Nc1ncc2c(-c3cnn(C(C)(C)C(=O)N4CCN(C)CC4)c3)cc([C@H]3CC[C@H](O)CC3)n2n1 [Compound 466] | ≥ 7.00 | +++ (“+++” represents a ratio of >100) | ≥ 7.00 |
| COC[C@H](C)Nc1ncc2c(C3=C[C@H]4CC[C@@H](C3)N4)cc([C@H]3CC[C@H](O)CC3)n2n1 [Compound 467] | ≥ 7.00 | +++ (“+++” represents a ratio of >100) | ≥ 7.00 |
| COC[C@H](C)Nc1ncc2c(C3=C[C@H]4CCC(C3)N4C(C)=O)cc([C@H]3CC[C@H](O)CC3)n2n1 [Compound 468] | ≥ 7.00 | +++ (“+++” represents a ratio of >100) | ≥ 7.00 |
| COC[C@H](C)Nc1ncc2c(C3=C[C@H]4CC[C@@H](C3)N4C(=O)N3CCOCC3)cc([C@H]3CC[C@H](O)CC3)n2n1 [Compound 469] | ≥ 7.00 | +++ (“+++” represents a ratio of >100) | ≥ 7.00 |
| COC[C@H](C)Nc1ncc2c(-c3cnn([C@H]4CCN(C)C4=O)c3)cc([C@H]3CC[C@H](O)CC3)n2n1 [Compound 470] | ≥ 7.00 | +++ (“+++” represents a ratio of >100) | ≥ 7.00 |
| COC[C@H](C)Nc1ncc2c(-c3cnn([C@@H]4CCN(C)C4=O)c3)cc([C@H]3CC[C@H](O)CC3)n2n1 [Compound 471] | ≥ 7.00 | +++ (“+++” represents a ratio of >100) | ≥ 7.00 |
| COC[C@H](C)Nc1ncc2c(-c3cnn(C[C@@H]4CC(=O)N(C)C4)c3)cc([C@H]3CC[C@H](O)CC3)n2n1 [Compound 473] | ≥ 7.00 | +++ (“+++” represents a ratio of >100) | ≥ 7.00 |
| COC[C@H](C)Nc1ncc2c(-c3cnn(C[C@@H]4CCO4)c3)cc([C@H]3CC[C@H](O)CC3)n2n1 [Compound 474] | ≥ 7.00 | +++ (“+++” represents a ratio of >100) | ≥ 7.00 |
| COC[C@H](C)Nc1ncc2c(-c3cnn(C[C@H]4CC(=O)N(C)C4)c3)cc([C@H]3CC[C@H](O)CC3)n2n1 [Compound 475] | ≥ 7.00 | +++ (“+++” represents a ratio of >100) | ≥ 7.00 |
| COC[C@H](C)Nc1ncc2c(-c3cnn(C[C@@H]4CCO4)c3)cc([C@H]3CC[C@H](O)CC3)n2n1 [Compound 478] | ≥ 7.00 | +++ (“+++” represents a ratio of >100) | ≥ 7.00 |
| COC[C@H](C)Nc1ncc2c(-c3ccnc(N4Cc5nc(C)sc5C4)c3)cc([C@H]3CC[C@H](O)CC3)n2n1 [Compound 479, (trans)-4-(2-(((S)-1-methoxypropan-2-yl)amino)-5-(2-(2-methyl-4H-pyrrolo[3,4-d]thiazol-5(6H)-yl)pyridin-4-yl)pyrrolo[2,1-f][1,2,4]triazin-7-yl)cyclohexanol] | ≥ 7.00 | +++ (“+++” represents a ratio of >100) | ≥ 7.00 |
| COC[C@H](C)Nc1ncc2c(-c3ccnc(N4CCOC5(COC5)C4)c3)cc([C@H]3CC[C@H](O)CC3)n2n1 [Compound 480] | ≥ 7.00 | +++ (“+++” represents a ratio of >100) | ≥ 7.00 |
| COC[C@H](C)Nc1ncc2c(C#N)cc([C@H]3CC[C@H](O)CC3)n2n1 [Compound 481] | ≥ 7.00 | +++ (“+++” represents a ratio of >100) | 6.00 to 7.00 |
| COC[C@H](C)Nc1ncc2c([C@H]3CC[C@@H](C(=O)N4CCOCC4)CC3)cc([C@H]3CC[C@H](O)CC3)n2n1 [Compound 484] | ≥ 7.00 | +++ (“+++” represents a ratio of >100) | ≥ 7.00 |
| COC[C@H](C)Nc1ncc2c(C3=C[C@@H]4CC[C@H](C3)N4CC(F)(F)F)cc([C@H]3CC[C@H](O)CC3)n2n1 [Compound 485] | ≥ 7.00 | +++ (“+++” represents a ratio of >100) | ≥ 7.00 |
| COC[C@H](C)Nc1ncc2c(-c3ccnc(N4CCN(C5COC5)CC4)c3)cc([C@H]3CC[C@H](O)CC3)n2n1 [Compound 486] | ≥ 7.00 | +++ (“+++” represents a ratio of >100) | ≥ 7.00 |
| COC[C@H](C)Nc1ncc2c(-c3ccnc(N4CCN(S(=O)(=O)C(F)(F)F)CC4)c3)cc([C@H]3CC[C@H](O)CC3)n2n1 [Compound 487] | ≥ 7.00 | +++ (“+++” represents a ratio of >100) | ≥ 7.00 |
| COC[C@H](C)Nc1ncc2c(-c3cnn(C(C)(C)C(=O)N4CCOCC4)c3)cc(C3CCc4[nH]ncc4C3)n2n1 (stereo partly drawn) [Compound 488] | ≥ 7.00 | +++ (“+++” represents a ratio of >100) | ≥ 7.00 |
| C[C@@H](CC(F)F)Nc1ncc2c(-c3ccc(S(C)(=O)=O)nc3)cc([C@H]3CC[C@H](O)CC3)n2n1 [Compound 489] | ≥ 7.00 | +++ (“+++” represents a ratio of >100) | ≥ 7.00 |
| COC[C@H](C)Nc1ncc2c(-c3ccnc(Oc4cccnc4)c3)cc([C@H]3CC[C@H](O)CC3)n2n1 [Compound 490] | ≥ 7.00 | +++ (“+++” represents a ratio of >100) | ≥ 7.00 |
| COC[C@H](C)Nc1ncc2c(-c3ccnc(N4CCN(S(=O)(=O)C5CC5)CC4)c3)cc([C@H]3CC[C@H](O)CC3)n2n1 [Compound 491] | ≥ 7.00 | +++ (“+++” represents a ratio of >100) | ≥ 7.00 |
| COC[C@H](C)Nc1ncc2c(C3=C[C@H]4CC[C@@H](C3)N4CC(F)(F)F)cc([C@H]3CC[C@H](O)CC3)n2n1 [Compound 492] | ≥ 7.00 | +++ (“+++” represents a ratio of >100) | ≥ 7.00 |
| COC[C@H](C)Nc1ncc2c(-c3ccnc(N4CCC5(COC5)C4)c3)cc([C@H]3CC[C@H](O)CC3)n2n1 [Compound 493] | ≥ 7.00 | +++ (“+++” represents a ratio of >100) | ≥ 7.00 |
| COC[C@H](C)Nc1ncc2c(C3=C[C@H]4CC[C@@H](C3)N4C)cc([C@H]3CC[C@H](O)CC3)n2n1 [Compound 494] | ≥ 7.00 | +++ (“+++” represents a ratio of >100) | ≥ 7.00 |
